According to patent publication US8507489B2, “Bicyclic triazoles as protein kinase modulators” (SGX Pharmaceuticals, Inc., priority 2006, dated 2013):
Counter-ions that a name gives are not always drawn.

What was measured:
[1] = target: c-MET (Homo sapiens, UniProt P08581); assay: MET luminescence-based enzyme assay (Kinase-Glo); format: biochemical
Procedure: The subscript designates positive or negative controls. The Z′ score for a robust screening assay should be ≧0.50. The typical threshold=μ+−3*σ+. Any value that falls below the threshold was designated a “hit”.
MET Luminescence-Based Enzyme Assay
MET kinase (see below), Kinase-Glo™ (Promega Cat#V6712).
Negative controls contained 10 μM staurosporine.

[2] = system: GTL16 cells; assay: 96-well XTT cell survival assay (GTL16 cells); format: cell-based; conditions: Homo sapiens, GTL 16, 72 hours
Procedure: GTL16 cells were maintained in DMEM Medium supplemented with 10% fetal bovine serum (FBS) 2 mM L-Glutamine and 100 units penicillin/100 μg streptomycin, at 37° C. in 5% CO2.
Compounds were tested in the following assays in duplicate.
96-well XTT assay (GTL16 cells): One day prior to assay the growth media was aspirated off and assay media was added to cells. On the day of the assay, the cells were grown in assay media containing various concentrations of compounds (duplicates) on a 96-well flat bottom plate for 72 hours at 37° C. in 5% CO2. The starting cell number was 5000 cells per well and volume was 120 μl. At the end of the 72-hour incubation, 40 μl of XTT labeling mixture (50:1 solution of sodium 3′-[1-(phenylaminocarbonyl)-3,4-tetrazolium]-bis (4-methoxy-6-nitro) benzene sulfonic acid hydrate and Electron-coupling reagent: PMS (N-methyl dibenzopyrazine methyl sulfate) were added to each well of the plate. After an additional 5 hours of incubation at 37° C., the absorbance reading at 450 nm with a background correction of 650 nm was measured with a spectrophotometer.

Chain of c-MET (P08581 1078-1345 limits assumed): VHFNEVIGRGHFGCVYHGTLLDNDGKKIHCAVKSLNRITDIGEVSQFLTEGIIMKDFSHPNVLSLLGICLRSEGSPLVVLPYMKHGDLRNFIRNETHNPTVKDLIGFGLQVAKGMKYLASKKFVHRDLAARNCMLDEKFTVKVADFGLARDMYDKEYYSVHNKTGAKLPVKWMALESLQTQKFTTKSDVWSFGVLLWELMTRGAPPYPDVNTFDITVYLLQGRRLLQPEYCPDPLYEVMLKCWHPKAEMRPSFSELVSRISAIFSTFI

IC50 [1] [µM]	Compound	IC50 [2] [µM]
< 0.1	CCc1ccc2nnc(Sc3ccc4ncc(-c5cnn(C)c5)cc4c3)n2n1 [Compound 58, 6-(6-Ethyl-[1,2,4]triazolo[4,3-b]pyridazin-3-ylsulfanyl)-3-(1-methyl-1H-pyrazol-4-yl)-quinoline]	≤ 0.1
< 0.1	CCc1ccc2nnc(Sc3ccc4ncc(-c5cnn(C6CN(CC)C6)c5)cc4c3)n2n1 [Compound 70, 3-[1-(1-Ethyl-azetidin-3-yl)-1H-pyrazol-4-yl]-6-(6-ethyl-[1,2,4]triazolo[4,3-b]pyridazin-3-ylsulfanyl)-quinoline]	≤ 0.1
< 0.1	CNC(=O)c1ccc(-c2ccc3nnc(Sc4cc5cccnc5cc4C)n3n2)cc1F [Compound 18, 2-Fluoro-N-methyl-4-[3-(7-methyl-quinolin-6-ylsulfanyl)-[1,2,4]triazolo[4,3-b]pyridazin-6-yl]-benzamide]	≤ 0.1
< 0.1	CNc1ccc2nnc(Sc3ccc4ncc(-c5cnn(C)c5)cc4c3)n2n1 [Compound 68, Methyl-{3-[3-(1-methyl-1H-pyrazol-4-yl)-quinolin-6-ylsulfanyl]-[1,2,4]triazolo[4,3-b]pyridazin-6-yl}-amine]	≤ 0.1
< 0.1	COCCn1cnc2ccc(Sc3nnc4ccc(-c5cnn(C)c5)nn34)cc21 [Compound 31, 3-[3-(2-Methoxy-ethyl)-3H-benzoimidazol-5-ylsulfanyl]-6-(1-methyl-1H-pyrazol-4-yl)-[1,2,4]triazolo[4,3-b]pyridazine]	0.1 to 1
< 0.1	Cc1ccc2nnc(Sc3ccc4ncc(-c5cnn(CC6CN(C(=O)OC(C)(C)C)C6)c5)cc4c3)n2n1 [Compound 65, 3-{4-[6-(6-Methyl-[1,2,4]triazolo[4,3-b]pyridazin-3-ylsulfanyl)-quinolin-3-yl]-pyrazol-1-ylmethyl}-azetidine-1-carboxylic acid tert-butyl ester]	≤ 0.1
0.1 to 1	Cc1ccc2nnc(Sc3ccc4ncccc4c3)n2n1 [Compound 37, 6-(6-Methyl-[1,2,4]triazolo[4,3-b]pyridazin-3-ylsulfanyl)-quinoline]	
0.1 to 1	Cc1ccc2nnc(Sc3cc4cccnc4cc3F)n2n1 [Compound 51, 7-Fluoro-6-(6-methyl-[1,2,4]triazolo[4,3-b]pyridazin-3-ylsulfanyl)-quinoline]	
1 to 10	Methyl-{3-[4-(4-methyl-4H-[1,2,4]triazol-3-ylsulfanyl)-quinolin-6-ylsulfanyl]-[1,2,4]triazolo[4,3-b]pyridazin-6-yl}-amine (A), Methyl-{3-[6-(4-methyl-4H-[1,2,4]triazol-3-ylsulfanyl)-quinolin-4-ylsulfanyl]-[1,2,4]triazolo[4,3-b]pyridazin-6-yl}-amine (B) [Compound 47]	
0.1 to 1	CN(C)c1ccnc2ccc(Sc3nnc4ccc(-c5cnn(C)c5)nn34)cc12 [Compound 29, Dimethyl-{6-[6-(1-methyl-1H-pyrazol-4-yl)-[1,2,4]triazolo[4,3-b]pyridazin-3-ylsulfanyl]-quinolin-4-yl}-amine]	

The next lines start with the compound.

Compound	IC50 [1] [µM]	IC50 [2] [µM]
Cn1cc(-c2ccc3nnc(Sc4ccc5nccc(NC(=O)OC(C)(C)C)c5c4)n3n2)cn1 [Compound 36, {6-[6-(1-Methyl-1H-pyrazol-4-yl)-[1,2,4]triazolo[4,3-b]pyridazin-3-ylsulfanyl]-quinolin-4-yl}-carbamic acid tert-butyl ester]	1 to 10	
COc1ccnc2ccc(Sc3nnc4ccc(-c5cnn(C)c5)nn34)cc12 [Compound 26, 4-Methoxy-6-[6-(1-methyl-1H-pyrazol-4-yl)-[1,2,4]triazolo[4,3-b]pyridazin-3-ylsulfanyl]-quinoline]	< 0.1	≤ 0.1
Cn1cc(-c2ccc3nnc(Sc4ccc5nccc(N)c5c4)n3n2)cn1 [Compound 34, 6-[6-(1-Methyl-1H-pyrazol-4-yl)-[1,2,4]triazolo[4,3-b]pyridazin-3-ylsulfanyl]-quinolin-4-ylamine, trifluoroacetic acid salt]	0.1 to 1	
CNc1ccc2nnc(Sc3ccc4ncccc4c3-c3cnn(C)c3)n2n1 [Compound 49, Methyl-{3-[5-(1-methyl-1H-pyrazol-4-yl)-quinolin-6-ylsulfanyl]-[1,2,4]triazolo[4,3-b]pyridazin-6-yl}-amine]	> 10	
Cn1cc(-c2cnc3ccc(Sc4nnc5ccc(-c6cnn(C)c6)nn45)cc3c2)cn1 [Compound 40, 3-(1-Methyl-1H-pyrazol-4-yl)-6-[6-(1-methyl-1H-pyrazol-4-yl)-[1,2,4]triazolo[4,3-b]pyridazin-3-ylsulfanyl]-quinoline]	< 0.1	≤ 0.1
CNc1ccc2nnc(Sc3ccc4nccc(Sc5nnc6ccc(NC)nn56)c4c3)n2n1 [Compound 48, 4,6-{6-Methylamino-[1,2,4]triazolo[4,3-b]pyridazin-3-ylsulfanyl}-quinoline]	> 10	
Fc1cccc(-c2ccc3nnc(Sc4ccc5nncn5c4)n3n2)c1 [Compound 7, 6-(3-Fluoro-phenyl)-3-([1,2,4]triazolo[4,3-a]pyridin-6-ylsulfanyl)-[1,2,4]triazolo[4,3-b]pyridazine]	1 to 10	1 to 10
Cn1cc(-c2ccc3nnc(Sc4cc5scnc5cc4F)n3n2)cn1 [Compound 15, 3-(5-Fluoro-benzothiazol-6-ylsulfanyl)-6-(1-methyl-1H-pyrazol-4-yl)-[1,2,4]triazolo[4,3-b]pyridazine]	< 0.1	≤ 0.1
Cn1cc(-c2ccc3nnc(Sc4ccc5ncc(NC(=O)OC(C)(C)C)cc5c4)n3n2)cn1 [Compound 35, {6-[6-(1-Methyl-1H-pyrazol-4-yl)-[1,2,4]triazolo[4,3-b]pyridazin-3-ylsulfanyl]-quinolin-3-yl}-carbamic acid tert-butyl ester]	< 0.1	≤ 0.1
Fc1cccc(-c2ccc3nnc(Sc4ccc5ncccc5c4)n3n2)c1 [Compound 5, 6-[6-(3-Fluoro-phenyl)-[1,2,4]triazolo[4,3-b]pyridazin-3-ylsulfanyl]-quinoline]	< 0.1	≤ 0.1
Cc1ccc2nnc(Sc3ccc4ncc(-c5cnn(C6CNC6)c5)cc4c3)n2n1 [Compound 62, 3-(1-Azetidin-3-yl-1H-pyrazol-4-yl)-6-(6-methyl-[1,2,4]triazolo[4,3-b]pyridazin-3-ylsulfanyl)-quinoline]	< 0.1	≤ 0.1
Cn1cc(-c2ccc3nnc(Sc4ccc5ncn(C)c5c4)n3n2)cn1 [Compound 25, 3-(3-Methyl-3H-benzoimidazol-5-ylsulfanyl)-6-(1-methyl-1H-pyrazol-4-yl)-[1,2,4]triazolo[4,3-b]pyridazine]	< 0.1	≤ 0.1
CCn1cnc2ccc(Sc3nnc4ccc(-c5cnn(C)c5)nn34)cc21 [Compound 30, 3-(3-Ethyl-3H-benzoimidazol-5-ylsulfanyl)-6-(1-methyl-1H-pyrazol-4-yl)-[1,2,4]triazolo[4,3-b]pyridazine]	< 0.1	≤ 0.1
CCN1CC(n2cc(-c3cnc4ccc(Sc5nnc6ccc(C)nn56)cc4c3)cn2)C1 [Compound 61, 3-[1-(1-Ethyl-azetidin-3-yl)-1H-pyrazol-4-yl]-6-(6-methyl-[1,2,4]triazolo[4,3-b]pyridazin-3-ylsulfanyl)-quinoline]	< 0.1	≤ 0.1
Cn1cc(-c2ccc3nnc(Sc4ccc5c(ccc[n+]5[O-])c4)n3n2)cn1 [Compound 27, 6-[6-(1-Methyl-1H-pyrazol-4-yl)-[1,2,4]triazolo[4,3-b]pyridazin-3-ylsulfanyl]-quinoline, N-oxide]	1 to 10	
CCc1ccnc2ccc(Sc3nnc4ccc(-c5cnn(C)c5)nn34)cc12 [Compound 60, 4-Ethyl-6-[6-(1-methyl-1H-pyrazol-4-yl)-[1,2,4]triazolo[4,3-b]pyridazin-3-ylsulfanyl]-quinoline]	< 0.1	≤ 0.1
Cc1cc2cc(Sc3nnc4ccc(-c5cnn(C)c5)nn34)ccc2nc1N [Compound 24, 3-Methyl-6-[6-(1-methyl-1H-pyrazol-4-yl)-[1,2,4]triazolo[4,3-b]pyridazin-3-ylsulfanyl]-quinolin-2-ylamine]	0.1 to 1	
Cc1ccc2nnc(Sc3ccc4nccc(Sc5nncn5C)c4c3)n2n1 [Compound 57, 6-(6-Methyl-[1,2,4]triazolo[4,3-b]pyridazin-3-ylsulfanyl)-4-(4-methyl-4H-[1,2,4]triazol-3-ylsulfanyl)-quinoline]	> 10	
CNc1ccnc2ccc(Sc3nnc4ccc(-c5cnn(C)c5)nn34)cc12 [Compound 28, Methyl-{6-[6-(1-methyl-1H-pyrazol-4-yl)-[1,2,4]triazolo[4,3-b]pyridazin-3-ylsulfanyl]-quinolin-4-yl}-amine]	1 to 10	
Cc1cnc2ccc(Sc3nnc4ccc(C)nn34)cc2c1 [Compound 54, 3-Methyl-6-(6-methyl-[1,2,4]triazolo[4,3-b]pyridazin-3-ylsulfanyl)-quinoline]	0.1 to 1	
Cc1ccc2nnc(Sc3ccc4ncc(Br)cc4c3)n2n1 [Compound 43, 3-Bromo-6-(6-methyl-[1,2,4]triazolo[4,3-b]pyridazin-3-ylsulfanyl)-quinoline]	0.1 to 1	
